Test results published in ChEMBL document CHEMBL1127896, “Synthesis and pharmacological characterization of ABT-200: a putative novel antidepressant combining potent -2 antagonism with moderate NE uptake inhibition” (Bioorg Med Chem Lett, 1994).

Assays:
[1] = target: T1, Adrenergic receptor alpha-1 (Rattus norvegicus, UniProt P15823+P23944+P43140); experiment: In vitro binding affinity at Alpha-1 adrenergic receptor by radioligand binding assay using [3H]prazosin; format: protein assay
T1 sequence (P15823 whole entry): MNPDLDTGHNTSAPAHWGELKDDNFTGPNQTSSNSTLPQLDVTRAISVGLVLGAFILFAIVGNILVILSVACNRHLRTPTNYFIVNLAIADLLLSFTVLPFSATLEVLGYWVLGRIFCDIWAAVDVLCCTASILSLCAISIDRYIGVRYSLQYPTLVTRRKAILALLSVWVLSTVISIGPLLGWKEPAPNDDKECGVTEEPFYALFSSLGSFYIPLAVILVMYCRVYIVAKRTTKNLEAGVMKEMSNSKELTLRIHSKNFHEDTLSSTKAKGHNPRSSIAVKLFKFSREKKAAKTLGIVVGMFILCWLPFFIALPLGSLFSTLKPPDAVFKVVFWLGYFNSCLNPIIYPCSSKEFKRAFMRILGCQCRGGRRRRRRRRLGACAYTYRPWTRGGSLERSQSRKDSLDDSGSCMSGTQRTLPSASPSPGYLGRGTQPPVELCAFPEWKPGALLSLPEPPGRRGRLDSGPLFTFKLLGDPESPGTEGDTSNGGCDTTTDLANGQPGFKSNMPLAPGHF
T1 sequence (P23944 whole entry): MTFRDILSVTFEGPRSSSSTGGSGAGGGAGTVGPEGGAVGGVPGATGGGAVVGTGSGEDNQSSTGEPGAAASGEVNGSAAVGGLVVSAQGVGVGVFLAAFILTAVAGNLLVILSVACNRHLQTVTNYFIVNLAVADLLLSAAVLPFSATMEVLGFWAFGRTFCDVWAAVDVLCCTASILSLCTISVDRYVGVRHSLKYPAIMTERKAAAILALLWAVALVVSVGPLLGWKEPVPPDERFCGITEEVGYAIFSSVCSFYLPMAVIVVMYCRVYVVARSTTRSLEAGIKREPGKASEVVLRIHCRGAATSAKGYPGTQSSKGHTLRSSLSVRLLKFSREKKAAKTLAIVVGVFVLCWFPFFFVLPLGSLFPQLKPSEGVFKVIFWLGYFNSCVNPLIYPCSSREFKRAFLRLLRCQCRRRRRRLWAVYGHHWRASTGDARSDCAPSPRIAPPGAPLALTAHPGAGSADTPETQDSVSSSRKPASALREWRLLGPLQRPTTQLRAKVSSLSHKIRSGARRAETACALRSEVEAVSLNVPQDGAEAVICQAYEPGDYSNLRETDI
T1 sequence (P43140 whole entry): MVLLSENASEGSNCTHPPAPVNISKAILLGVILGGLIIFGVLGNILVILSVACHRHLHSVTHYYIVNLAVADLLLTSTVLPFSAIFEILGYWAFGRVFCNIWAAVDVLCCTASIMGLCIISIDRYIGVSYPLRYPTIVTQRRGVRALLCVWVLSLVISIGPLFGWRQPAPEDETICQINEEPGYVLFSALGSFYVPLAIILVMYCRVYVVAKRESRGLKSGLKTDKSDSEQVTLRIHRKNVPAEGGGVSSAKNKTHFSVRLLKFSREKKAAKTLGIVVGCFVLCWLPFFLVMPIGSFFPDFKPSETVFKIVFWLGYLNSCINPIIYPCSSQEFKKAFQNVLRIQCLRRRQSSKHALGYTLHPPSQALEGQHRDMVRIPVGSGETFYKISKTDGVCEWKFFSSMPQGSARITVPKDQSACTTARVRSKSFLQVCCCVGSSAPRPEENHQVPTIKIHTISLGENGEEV

Rattus norvegicus = organism: Rattus norvegicus; experiment: Concentration required for its norepinephrine reuptake inhibitory activity in synaptosomal rat hyphalamic preparations; format: functional
[2] = target: T2, Adrenergic receptor alpha-2 (Rattus norvegicus, UniProt P22086+P19328+P22909); experiment: In vitro binding affinity at Alpha-2 adrenergic receptor in rat cortex by radioligand binding assay using [3H]rauwolscine
T2 sequence (P22086 whole entry): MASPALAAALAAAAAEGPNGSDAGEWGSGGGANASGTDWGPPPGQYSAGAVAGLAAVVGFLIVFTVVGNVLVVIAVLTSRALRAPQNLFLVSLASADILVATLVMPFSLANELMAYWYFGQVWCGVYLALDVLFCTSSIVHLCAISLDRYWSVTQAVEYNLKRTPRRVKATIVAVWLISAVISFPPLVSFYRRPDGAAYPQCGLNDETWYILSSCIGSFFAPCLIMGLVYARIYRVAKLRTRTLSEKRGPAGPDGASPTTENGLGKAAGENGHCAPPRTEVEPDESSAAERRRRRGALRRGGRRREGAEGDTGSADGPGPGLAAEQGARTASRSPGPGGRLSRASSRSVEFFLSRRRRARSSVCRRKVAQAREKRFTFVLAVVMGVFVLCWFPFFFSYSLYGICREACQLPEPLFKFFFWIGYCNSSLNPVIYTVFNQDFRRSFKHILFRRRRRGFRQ
T2 sequence (P19328 whole entry): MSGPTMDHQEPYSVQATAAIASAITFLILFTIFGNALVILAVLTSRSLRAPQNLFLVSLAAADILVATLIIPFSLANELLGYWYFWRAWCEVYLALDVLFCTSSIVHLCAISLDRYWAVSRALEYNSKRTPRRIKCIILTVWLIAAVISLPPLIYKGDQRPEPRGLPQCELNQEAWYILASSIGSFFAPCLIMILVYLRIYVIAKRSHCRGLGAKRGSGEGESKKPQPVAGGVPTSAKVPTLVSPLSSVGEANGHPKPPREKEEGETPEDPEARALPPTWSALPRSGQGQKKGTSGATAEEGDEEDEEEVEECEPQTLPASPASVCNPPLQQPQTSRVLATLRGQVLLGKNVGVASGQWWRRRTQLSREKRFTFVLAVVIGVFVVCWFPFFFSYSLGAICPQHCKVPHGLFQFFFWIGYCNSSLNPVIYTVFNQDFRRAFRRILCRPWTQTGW
T2 sequence (P22909 whole entry): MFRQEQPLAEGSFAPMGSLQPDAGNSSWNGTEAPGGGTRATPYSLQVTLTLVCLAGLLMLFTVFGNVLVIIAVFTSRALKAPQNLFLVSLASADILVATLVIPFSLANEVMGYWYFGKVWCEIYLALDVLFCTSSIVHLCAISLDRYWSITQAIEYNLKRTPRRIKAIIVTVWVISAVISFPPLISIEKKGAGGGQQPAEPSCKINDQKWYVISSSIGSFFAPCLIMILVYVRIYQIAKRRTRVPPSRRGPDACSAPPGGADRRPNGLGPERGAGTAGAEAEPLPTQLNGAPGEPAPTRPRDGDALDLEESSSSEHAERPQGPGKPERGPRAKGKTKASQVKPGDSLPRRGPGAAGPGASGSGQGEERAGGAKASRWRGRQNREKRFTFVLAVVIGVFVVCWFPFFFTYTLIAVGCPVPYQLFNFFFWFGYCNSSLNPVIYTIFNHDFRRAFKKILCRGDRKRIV

[3] = target: T2, Adrenergic receptor alpha-2; experiment: Evaluated for its presynaptic Alpha-2 adrenergic receptor antagonistic activity against rat vas deferens using clonidine as the control expressed as slope; format: functional, tissue-based

SMILES | Ki [1] [nM] | IC50 (Rattus norvegicus) [nM] | Ki [2] [nM] | pA2 [3] | IC50 (Rattus norvegicus; Rattus norvegicus) [nM]
c1ccc([C@H]2CCN(C[C@@H]3CCCc4c3ccc3c4OCO3)C2)cc1 | 106 | 3110 | 0.428 | 7.78 | 
c1ccc(C2CCN(CC3CCCc4c3ccc3c4OCO3)C2)cc1 (stereo in doubt; 1a/b) | 112 | 841 | 1.23 | 7.68 | 
c1ccc(C2CCN(CC3CCCc4c3ccc3c4OCO3)C2)cc1 (stereo in doubt; 6a/b) | 75.9 | 1320 | 0.708 | 7.84 | 
CN(C)CCCN1c2ccccc2CCc2ccccc21 [IMIPRAMINE] |  |  | 255 |  | 105

Next, values leading:

Ki [1] [nM] | IC50 (Rattus norvegicus) [nM] | Ki [2] [nM] | pA2 [3] | IC50 (Rattus norvegicus; Rattus norvegicus) [nM] | SMILES
47.4 |  | 0.5 | 7.91 | 1700 | c1ccc([C@@H]2CCN(C[C@@H]3CCCc4c3ccc3c4OCO3)C2)cc1
189 |  | 4.56 | 6.65 | 1450 | c1ccc([C@H]2CCN(C[C@H]3CCCc4c3ccc3c4OCO3)C2)cc1
104 |  | 2.08 | 6.78 | 636 | c1ccc([C@@H]2CCN(C[C@H]3CCCc4c3ccc3c4OCO3)C2)cc1
